# From ChEMBL document CHEMBL1201862, “PubChem BioAssay data set” (2004)
#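 Cells were grown in 96-well plates and exposed to each compound for 48 hours at five concentrations; endpoints were interpolated linearly between bracketing concentrations, or set to the highest concentration if not reached. Abbreviation: GI50, concentration required for 50% inhibition of growth.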 Activity calls are given as the source filed them. No stated cut-off is given here; in the data, active = GI50 up to about 1.1 µM and inactive = higher.
# Tests used:
# Assay in all cases: DTP human tumour cell line panel, 48 h
# SNB-78 = tested on: SNB-78
# SN12C = tested on: SN12C
# UACC-62 = tested on: UACC-62
# SF-539 = tested on: SF-539
# ACHN = tested on: ACHN
# SW-620 = tested on: SW-620
# SK-OV-3 = tested on: SK-OV-3
# NCI-H23 = tested on: NCI-H23
# NCI-H460 = tested on: NCI-H460
# IGROV-1 = tested on: IGROV-1
# NCI-H522 = tested on: NCI-H522
# COLO 205 = tested on: COLO 205
# HCC 2998 = tested on: HCC 2998
# CCRF-CEM = tested on: CCRF-CEM
# EKVX = tested on: EKVX
# MDA-MB-435 = tested on: MDA-MB-435
# MCF7 = tested on: MCF7
# DU-145 = tested on: DU-145
# MDA-N = tested on: MDA-N
# PC-3 = tested on: PC-3
SMILES,GI50 (SNB-78),GI50 (SN12C),GI50 (UACC-62),GI50 (SF-539),GI50 (ACHN),GI50 (SW-620),GI50 (SK-OV-3),GI50 (NCI-H23),GI50 (NCI-H460),GI50 (IGROV-1),GI50 (NCI-H522),GI50 (COLO 205),GI50 (HCC 2998),GI50 (CCRF-CEM),GI50 (EKVX),GI50 (MDA-MB-435),GI50 (MCF7),GI50 (DU-145),GI50 (MDA-N),GI50 (PC-3)
COc1cc([C@@H]2c3cc4c(cc3[C@@H](NC(=O)c3ccc(OC(C)=O)cc3)C3COC(=O)[C@@H]32)OCO4)cc(OC)c1O (stereo not given in full),19.8 µM (inactive),1 µM (active),0.547 µM (active),0.406 µM (active),0.689 µM (active),0.729 µM (active),2.47 µM (inactive),0.9 µM (active),0.03 µM (active),0.258 µM (active),1.73 µM (inactive),10.2 µM (inactive),3.27 µM (inactive),0.213 µM (active),4.18 µM (inactive),,,,,
COc1cc2cc3c4cc(OC)c(OC)cc4cc[n+]3c(C)c2cc1OC.O=C([O-])CS(=O)(=O)O,48.4 µM (inactive),3.27 µM (inactive),65.9 µM (inactive),42.7 µM (inactive),> 100 µM (inactive),72.8 µM (inactive),> 100 µM (inactive),7.87 µM (inactive),> 100 µM (inactive),80.9 µM (inactive),4.88 µM (inactive),57 µM (inactive),> 100 µM (inactive),33.2 µM (inactive),> 100 µM (inactive),42.3 µM (inactive),72.8 µM (inactive),28.4 µM (inactive),49.4 µM (inactive),74.5 µM (inactive)
